Legend:
Erk1/2 phosphorylation = assay: Erk1/2 Phosphorylation Assay (western blot), Panc-1; format: cell-based, human; settings: at 10 μM, * = activation
Summary of the method: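 Phospho-Erk1/2 (Thr202/Tyr204) was detected by western blot in lysates of Panc-1 cells (KRas G12D). These had 6 h, 37° C exposure to 10 μM compound or a dilution series for IC50, in 0.3% DMSO. Cells were either starved overnight in 0.5% FBS with a 15-min 1.5 ng/ml EGF pulse, or kept unstimulated in 10% FBS.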

IL6 = assay: IL-6 Quantification Assay (ELISA), LPS-stimulated RAW 264.7; format: cell-based; set-up: inhibition: dose or concentration left out as unconfirmed; settings: Mus musculus, RAW264.7; read-out: IL-6: % inh.
TNF-alpha = TNF-alpha Quantification Assay (ELISA), LPS-stimulated RAW 264.7; format: cell-based; settings: Mus musculus, RAW264.7; at 10 μM; read-out: TNFα: % inh.
KRas G12D mutant = assay: Ras GTP Binding Domain Inhibition Assay (Ras Superfamily Assay); settings: 20 μM compound; for KRas G12D mutant + SOS: % inh.: with SOS; for KRas G12D mutant: % inh.: without SOS
Summary of the method: (§1)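 Binding of 100 nM fluorescent GTP (Cy3 or Cy5, 45 min, room temperature) was read after washes from plate-captured His-tagged protein. Beforehand, compounds at 20 μM or in dilution series for IC50 sat 3 h on the protein in Tris buffer pH 7.4 or 7.0 with 1% DMSO, Sos GEF optionally added for the last hour.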

KRas wild type = assay: as above; settings: 20 μM compound; for KRas wild type + SOS: % inh.: with SOS; for KRas wild type: % inh.: without SOS
Summary of the method: as §1

Rac-1 = biological target: T1, Rac-1 (Homo sapiens, UniProt P63000); assay: as above; settings: read-out: Rac-1: % inh.
T1 construct: made in house
Summary of the method: as §1

Compound | % inh of Erk1/2 phosphorylation in Panc-1 (Erk1/2 phosphorylation) | inhibition (IL6) [%] | inhibition at 10 µM (TNF-alpha) [%] | KRas G12D mutant + SOS: % inh. (KRas G12D mutant) | KRas G12D mutant: % inh. (KRas G12D mutant) | KRas wild type + SOS: % inh. (KRas wild type) | KRas wild type: % inh. (KRas wild type) | inhibition at 20 µM (Rac-1) [%]
COc1ccnc(Nc2nc(-c3nccn3C)nn3cc(-c4cccnc4)c(-c4ccccn4)c23)c1 [Compound 166, N-(4-Methoxypyridin-2-yl)-2-(1-methyl-1H-imidazol-2-yl)-5-(pyridin-2-yl)-6-(pyridin-3-yl)pyrrolo[2,1-f][1,2,4]triazin-4-amine] | B* (26-49% activation) | 75 to 100 | 75 to 100 | D (D = 76-100% inhibition) | D (D = 76-100% inhibition) | D (D = 76-100% inhibition) | C (C = 50-75% inhibition) | 76 to 100
COc1cc(Nc2nc(-c3nccn3C)nn3cc(-c4cccnc4)c(-c4ccccn4)c23)ncn1 [Compound 167, N-(6-Methoxypyrimidin-4-yl)-2-(1-methyl-1H-imidazol-2-yl)-5-(pyridin-2-yl)-6-(pyridin-3-yl)pyrrolo[2,1-f][1,2,4]triazin-4-amine] | A (1-25% inhibition) | 0 | 0 | A (A = 1-25% inhibition) | B (B = 26-49% inhibition) | A (A = 1-25% inhibition) | A (A = 1-25% inhibition) | 1 to 25
CO[C@H]1C[C@H](Nc2nc(-c3nccn3C)nn3cc(-c4cccnc4)c(-c4ccccn4)c23)C1 [Compound 168, N-((1r,3r)-3-Methoxycyclobutyl)-2-(1-methyl-1H-imidazol-2-yl)-5-(pyridin-2-yl)-6-(pyridin-3-yl)pyrrolo[2,1-f][1,2,4]triazin-4-amine] | 0 (0% inhibition) | 1 to 24 | 25 to 49 | A (A = 1-25% inhibition) | B (B = 26-49% inhibition) | A (A = 1-25% inhibition) | A (A = 1-25% inhibition) | 1 to 25
COc1ccnc(Nc2nc(-c3nccn3C)nn3cc(-c4cccnc4)c(-c4cccnc4)c23)c1 [Compound 169, N-(4-methoxypyridin-2-yl)-2-(1-methyl-1H-imidazol-2-yl)-5,6-di(pyridin-3-yl)pyrrolo[2,1-f][1,2,4]triazin-4-amine] | B* (26-49% activation) | 1 to 24 | 0 | D (D = 76-100% inhibition) | D (D = 76-100% inhibition) | D (D = 76-100% inhibition) | D (D = 76-100% inhibition) | 76 to 100

Reference: patent US12459951B2, “Compounds that interact with RAS superfamily proteins for treatment of cancers, inflammatory diseases, rasopathies, and fibrotic disease” (SHY Therapeutics, LLC, priority 2022, dated 2025)
